Measurements taken from ChEMBL document CHEMBL4765340, “Novel potent antiplatelet thrombotic agent derived from biguanide for ischemic stroke” (Eur J Med Chem, 2020).
Active and inactive are the calls of the source. The rule behind the calls is not given here.

Legend:
Platelet [1] = test: Cytotoxicity against human platelet assessed as extracellular LDH levels changes at 1 mM incubated for 3 hrs; type: cell-based; details: 1000 µM
[2] = Half life in Sprague-Dawley rat at 200 mg/kg, po measured by HPLC-MS/MS analysis; type: ADME, organism-based; details: in vivo
Mus musculus [3] = test: (§1) Antithrombotic activity in transient focal cerebral ischemic mouse model occlusion induced 60 mins of the right middle cerebral artery followed by reperfussion 23 hrs assessed as reduction of brain infract volume at 200 mg/kg, po twice daily for 7 days by TTC staining based […] analysis (reference value: 46 +/- 5%); type: functional; design: scale not given: the % may be the effect or the level left; details: time 7 day
[4] = Toxicity in C57BL/6J mouse assessed as change in sodium level at 200 mg/kg twice daily for 60 days relative to control; type: organism-based; details: in vivo, 1440 h, time 60 day
[5] = Suppression of glycoprotein IIb/IIIa activation in thrombin-stimulated human platelets by measuring activated GPIIb/IIIa at 1 mM measured after 3 hrs by PAC-1-FITC dye based flow cytometry (reference value: 90.1%); type: functional; details: Platelet
[6] = Inhibition of thrombin-stimulated human platelet aggregation by measuring aggregation at 0.50 mM measured after 2 hrs by scanning electron microscopy; type: functional; design: scale not given: the % may be the effect or the level left; details: dose 0.5 mM
[7] = Inhibition of thrombin-stimulated human platelet aggregation by measuring aggregation at 0.01 mM measured after 3 hrs by scanning electron microscopy (Rvb= 87.2 +/- 4.0%); type: functional; design: scale not given: the % may be the effect or the level left
Platelet [8] = test: Antiplatelet activity in thrombin-stimulated human platelet assessed as reduction in the clot retraction preincubated at 0.5 mM with fibrinogen for 3 hrs followed by added thrombin measured after 0.5 hrs (reference value: 80.3 =/- 5.5%); type: functional; design: scale not given: the % may be the effect or the level left; details: time 3.5 hrs
[9] = Toxicity in calcein-labelled platelet-mediated ferric chloride-induced arterial injury thrombosis po dosed C57BL/6J mouse model assessed as change in thrombin time treated twice a day measured upto 7 days; type: organism-based; details: in vivo, 168 h, time <=7 day
[10] = Toxicity against C57BL/6J mouse assessed as spleen morphology at 200 mg/kg twice a day measured after 60 days; type: organism-based; details: in vivo, 1440 h, time 60 day
[11] = Suppression of glycoprotein IIb/IIIa activation in thrombin-stimulated human platelets by measuring activated GPIIb/IIIa at 0.50 mM measured after 3 hrs by PAC-1-FITC dye based flow cytometry (reference value: 90.1%); type: functional; details: Platelet, at 0.5 mM
[12] = Toxicity against diabetic C57BL/6J mouse assessed hypoglycemic activity at 200 mg/kg twice a day measured after 60 days relative to parent compound; type: organism-based; details: in vivo, 1440 h, time 60 day
[13] = Toxicity against C57BL/6J mouse assessed as pancreas morphology at 200 mg/kg twice a day measured after 60 days; type: organism-based; details: in vivo, 1440 h, time 60 day
[14] = Inhibition of thrombin-stimulated human platelet aggregation measured after 3 hrs by scanning electron microscopy; type: functional, tissue-based
Mus musculus [15] = test: Antithrombotic activity in calcein-labelled platelet-mediated ferric chloride-induced arterial injury thrombosis C57BL/6J mouse model assessed as average time to occlusive thrombosis at 100 mg/kg, po administrated twice a day measured upto 7 days (reference value: 7.9 +/- 0.7 min); type: functional; details: time day <=7
[16] = Toxicity in C57BL/6J mouse assessed as change in platelet count at 200 mg/kg twice daily for 60 days relative to control; type: organism-based; details: in vivo, 1440 h, time 60 day
[17] = Inhibition of thrombin-stimulated human platelet aggregation by measuring aggregation at 0.50 mM measured after 3 hrs by scanning electron microscopy (Rvb= 87.2 +/- 4.0%); type: functional; design: scale not given: the % may be the effect or the level left; details: dose 0.5 mM
[18] = Toxicity in calcein-labelled platelet-mediated ferric chloride-induced arterial injury thrombosis po dosed C57BL/6J mouse model assessed as change in activated partial thromboplastin time treated twice a day measured upto 7 days; type: organism-based; details: in vivo, 168 h, time <=7 day
Platelet [19] = test: Inhibition of thrombin-stimulated human platelet aggregation at 1 mM measured after 3 hrs by scanning electron microscopy (Rvb= 87.2 +/- 4.0%); type: functional, tissue-based
[20] = Toxicity in C57BL/6J mouse assessed as change in glucose level at 200 mg/kg twice daily for 60 days relative to control; type: organism-based; details: in vivo, 1440 h, time 60 day
[21] = Toxicity in C57BL/6J mouse assessed as change in bicarbonate level at 200 mg/kg twice daily for 60 days relative to control; type: organism-based; details: in vivo, 1440 h, time 60 day
[22] = Toxicity in calcein-labelled platelet-mediated ferric chloride-induced arterial injury thrombosis po dosed C57BL/6J mouse model assessed as change in coagulation factor VII to XII treated twice a day measured upto 7 days; type: organism-based; details: in vivo, 168 h, time <=7 day
[23] = Apparent clearance during terminal phase in Sprague-Dawley rat at 200 mg/kg, po measured by HPLC-MS/MS analysis; type: ADME, organism-based; details: in vivo
[24] = Toxicity in calcein-labelled platelet-mediated ferric chloride-induced arterial injury thrombosis po dosed C57BL/6J mouse model assessed as change in prothrombin time treated twice a day measured upto 7 days; type: organism-based; details: in vivo, 168 h, time <=7 day
Mus musculus [25] = test: as §1, with “neurological deficits” for “brain infract volume”, “analysis” for “analysis (reference value: 46 +/- 5%)”; type: functional, organism-based; details: time 7.0 day
[26] = AUC (0 to infinity) in Sprague-Dawley rat at 200 mg/kg, po measured by HPLC-MS/MS analysis; type: ADME, organism-based; design: time infinity, route oral, dose 200 mg/kg; details: in vivo
[27] = Suppression of P-selectin expression in thrombin-stimulated human platelets by measuring CD62P positive platelets at 0.50 mM after 3 hrs by flow cytometry analysis (reference value: 78.2%); type: functional; details: Platelet, at 0.5 mM
[28] = Toxicity against C57BL/6J mouse assessed as lungs morphology at 200 mg/kg twice a day measured after 60 days; type: organism-based; details: in vivo, 1440 h, time 60 day
Mus musculus [29] = test: Antithrombotic activity in calcein-labelled platelet-mediated ferric chloride-induced arterial injury thrombosis C57BL/6J mouse model assessed as thrombus length at 300 mg/kg, po administrated twice a day measured upto 7 days (reference value: 4.4 +/- 0.4 mm); type: functional; details: time day <=7
Mus musculus [30] = test: Antithrombotic activity in calcein-labelled platelet-mediated ferric chloride-induced arterial injury thrombosis C57BL/6J mouse model assessed as thrombus weight at 300 mg/kg, po administrated twice a day measured upto 7 days (reference value: 3.3 +/- 0.3 mg); type: functional; details: time day <=7
[31] = Suppression of P-selectin expression in thrombin-stimulated human platelets by measuring CD62P positive platelets at 0.05 mM after 3 hrs by flow cytometry analysis (reference value: 78.2%); type: functional; details: Platelet
Platelet [32] = test: Cytotoxicity against human platelet assessed as extracellular LDH levels changes at 1 mM incubated for 6 hrs; type: cell-based; details: 1000 µM
[33] = Toxicity against C57BL/6J mouse assessed as body weight at 200 mg/kg twice a day measured after 60 days; type: organism-based; details: in vivo, 1440 h, time 60 day
Mus musculus [34] = test: Antithrombotic activity in calcein-labelled platelet-mediated ferric chloride-induced arterial injury thrombosis C57BL/6J mouse model assessed as thrombus length at 50 mg/kg, po administrated twice a day measured upto 7 days (reference value: 4.4 +/- 0.4 mm); type: functional; details: time day <=7
[35] = Inhibition of thrombin-stimulated human platelet aggregation by measuring aggregation at 0.10 mM measured after 3 hrs by scanning electron microscopy (Rvb= 87.2 +/- 4.0%); type: functional; design: scale not given: the % may be the effect or the level left; details: dose 0.1 mM
[36] = Toxicity in C57BL/6J mouse assessed as change in creatinine level at 200 mg/kg twice daily for 60 days relative to control; type: organism-based; details: in vivo, 1440 h, time 60 day
[37] = Toxicity against C57BL/6J mouse assessed as effect on blood lactic acid at 200 mg/kg twice a day measured after 60 days; type: organism-based; details: in vivo, 1440 h, time 60 day

## CN(C)C(=N)NC(=N)NS(=O)(=O)C(F)(F)F
Platelet [1]
  Activity: Non-Toxic
[2]
  half-life: 4.94 h
Mus musculus [3]
  Activity: 5%
[4]
  Activity: Non-Toxic
[5]
  level, % of control at 1000 µM: 37.2%
[6]
  Activity: 35%
[7]
  Activity: 75.9%
Platelet [8]
  Activity: 28.4%
[9]
  Activity: Non-Toxic
[10]
  Activity: Non-Toxic
[11]
  level, % of control at 500 µM: 37.5%
[12]
  Activity: Non-Toxic
[13]
  Activity: Non-Toxic
[14]
  IC50: 150 µM
Mus musculus [15]
  Time: 15.1 min
[16]
  Activity: Non-Toxic
[17]
  Activity: 21%
[18]
  Activity: Non-Toxic
Platelet [19]
  inhibition: inactive
[20]
  Activity: Non-Toxic
[21]
  Activity: Non-Toxic
[22]
  Activity: Non-Toxic
[23]
  CLz/F: 16.6 mL/min/kg
[24]
  Activity: Non-Toxic
Mus musculus [25]
  Activity: Active
[26]
  AUC(0-inf): 201 µg·h/mL
[27]
  level, % of control at 500 µM: 45.2%
[28]
  Activity: Non-Toxic
Mus musculus [29]
  Activity: 1.4 mm
Mus musculus [30]
  Activity: 0.4 mg
[31]
  level, % of control at 50 µM: 58.9%
Platelet [32]
  Activity: Non-Toxic
[33]
  Activity: Non-Toxic
Mus musculus [34]
  Activity: 3.5 mm
[35]
  Activity: 44.2%
[36]
  Activity: Non-Toxic
[37]
  Activity: Non-Toxic
